Tests used:
SRPK1 [1] = assay: In vitro phosphorylation of TAF15 as substrate by GST-SRPK1; assay type: biochemical; details: bacterially produced GST-SRPK1; GST-LBRNt(62–92) as positive substrate; autoradiography
Protocol: (§1) Kinase assays were carried out at 30 °C in a total volume of 25 μL containing 12 mM Hepes pH 7.5, 10 mM MgCl2, 25 μM ATP, 1–3 μg of the appropriate substrate (GST-LBRNt(62–92) or GST-TAF15 or His-TAF15), and 1–2 μg GST-SRPK1. For the inhibition assays, GST-SRPK1 was incubated with GST-LBRNt(62–92) under the assay conditions in the presence of increasing concentrations of GST-TAF15, GST-TAF15-RGG, and GST-TAF15(1–320) or Nucl, SAFA, and A2B1 peptides, as indicated. Nucl ([…]), SAFA ([…]) and A2B1 ([…]) peptides, comprising the RGG repeats of nucleolin, HNRPU (SAFA), and HNRNPA2B1, respectively, were provided by GeneCust, Boynes, France. The samples were incubated for 30 min, and the reaction was stopped by adding 6 μL of 5 × SDS sample buffer and heating at 95 °C for 3 min. Phosphoproteins were detected via autoradiography using Super RX (a Fuji medical X-ray film), and signals were quantified by excising the radioactive bands from the gel and scintillation counting. p-values were determined using a two-tailed, unpaired student’s t-test.

SRPK1 [2] = assay: In vitro kinase inhibition assay: phosphorylation of GST-LBRNt(62–92) by GST-SRPK1; assay type: biochemical; details: for Effect of TAF15 fusion proteins on SRPK1 activity (phosphorylation of GST-LBRNt(62–92)): 1, 2, 4, 6, 8 μg GST-TAF15, 1.5, 3, 6, 10, 15 μg GST-TAF15-RGG, 2, 4, 8, 12, 16 μg GST-TAF15(1-320), 25 μL, [γ-32P]ATP, Cherenkof counting, two independent experiments; for Effect of TAF15 fusion proteins on SRPK1 activity (phosphorylation of GST-LBRNt(62–92)) / Inhibition of SRPK1 activity (phosphorylation of GST-LBRNt(62–92) by GST-SRPK1): 30 °C, 30 min; for Inhibition of SRPK1 activity (phosphorylation of GST-LBRNt(62–92) by GST-SRPK1): peptide 0.1, 0.2, 0.3, 0.4 and 0.5 mM, 25 μM ATP, autoradiography, bands counted, means ± SE of two independent experiments (Figure 8); for Relative inhibitory activity on SRPK1 among the three RGG peptides (proportional to number of RGG repeats): peptide 0.1–0.5 mM, substrate GST-LBRNt(62–92), two independent experiments (Figure 8B)
Protocol: as §1

SRPK1 [3] = assay: Pull-down of SRPK1 from HeLa cell extracts with immobilized GST-TAF15 fusion proteins; assay type: binding; details: 150 mM NaCl, 1% Triton X-100, 60 min, room temperature; Western blot with anti-SRPK1
Protocol: Incubation of GST, GST-TAF15, GST-TAF15(1–320), and GST-TAF15-RGG (2–3 μg each) immobilized on glutathione-Sepharose beads with HeLa cell extracts (∼200 μg of total protein) was performed in 50 mm Tris-HCl, pH 7.5, 150 mm NaCl, 1% Triton X-100, and 0.5 mm PMSF (cell extraction buffer) in a total volume of 0.5 mL for 60 min at room temperature. Bound SRPK1 was analyzed on 10% SDS-polyacrylamide gels and detected by Western blotting using the anti-SRPK1 monoclonal antibody (611072, BD Biosciences, San Jose, CA, USA), an alkaline phosphatase-coupled goat anti-mouse secondary antibody, and a 5-bromo-4-chloro-3-indolyl phosphate/nitro blue tetrazolium substrate.

SRPK1 [4] = assay: Pull-down of His-TAF15 with GST-SRPK1 immobilized on glutathione-Sepharose beads; assay type: binding; details: 60 min, room temperature, Coomassie blue staining
Protocol: Incubation of GST and GST-SRPK1 (2–3 μg each) immobilized on glutathione-Sepharose beads with His-TAF15 (2 μg) was performed in 20 mm Hepes, pH 7.5, 50 mM NaCl, and 1% Triton X-100 in a total volume of 0.5 mL. Similar incubations were also performed in the presence of 150 and 300 mM NaCl to test the stringency of the interaction. The incubations were carried out for 60 min at room temperature. The beads were harvested, washed three times with 500 μL of binding buffer, and resuspended in 25 μL of SDS sample buffer. Bound His-TAF15 was analyzed on 10% SDS-polyacrylamide gels and detected by Coomassie Blue staining.

“GST-TAF15: full-length TAF15 as GST-fusion protein produced in bacteria” was tested. Which “Phosphorylation of TAF15 by SRPK1 (substrate test)” value (SRPK1 [1]) did it give?
The value was “did not modify”.

And the “Effect of TAF15 fusion proteins on SRPK1 activity (phosphorylation of GST-LBRNt(62–92))” value (SRPK1 [2])?
Its value is “inhibited the phosphorylation of GST-LBRNt(62–92) in a dose-responsive manner”.

How did the “Effect of TAF15 fusion proteins on SRPK1 activity (phosphorylation of GST-LBRNt(62–92))” value (SRPK1 [2]) turn out when “GST-TAF15-RGG: C-terminal RGG domain (aa 319–589) of TAF15 as GST-fusion protein” was run?
Its value is “inhibited SRPK1 as potently as full-length TAF15”.

What about the “Binding of SRPK1 from HeLa cell extracts to immobilized GST fusion protein” value (SRPK1 [3]) of the same molecule?
The value was “could bind to SRPK1”.

“RGGNFGFGDSRGGGGNFGPGPGSNFRGG [A2B1, peptide comprising the RGG repeats of HNRNPA2B1, provided by GeneCust]” was tested. Which “Inhibition of SRPK1 activity (phosphorylation of GST-LBRNt(62–92) by GST-SRPK1)” value (“Inhibition of SRPK1 activity” below) (SRPK1 [2]) did it give?
The value was “could inhibit SRPK1”.

What about the “Relative inhibitory activity on SRPK1 among the three RGG peptides (proportional to number of RGG repeats)” value (SRPK1 [2]) of the same molecule?
The value was “weaker”.

“RGGGHRGRGGFNMRGGNFRGGAPGNRGGY [SAFA, peptide comprising the RGG repeats of HNRPU (SAFA), provided by GeneCust]” was tested. Which “Inhibition of SRPK1 activity” value (SRPK1 [2]) did it give?
The value was “could inhibit SRPK1”.

How did the “Inhibition of SRPK1 activity” value (SRPK1 [2]) turn out when “RGGGRGGFGGRGGGRGGRGGFGGRGRGGFGGRGGFRGGRGG [Nucl, peptide comprising the RGG repeats of nucleolin, provided by GeneCust]” was run?
Its value is “could inhibit SRPK1”.

And the “Relative inhibitory activity on SRPK1 among the three RGG peptides (proportional to number of RGG repeats)” value (SRPK1 [2])?
Its value is “most potent inhibitory activity”.

What does the source list for “His-TAF15: full-length TAF15 with an 8xHis tag fused to its N-terminus”?
Phosphorylation of TAF15 by SRPK1 (substrate test) (SRPK1 [1]): unable to phosphorylate; Binding of TAF15 to GST-SRPK1 in pull-down (SRPK1 [4]; increased salt, 0.3 M NaCl): reduced binding; Binding of TAF15 to GST-SRPK1 in pull-down (SRPK1 [4]; physiological ionic strength, 50–150 mM NaCl): binds SRPK1

B1: GST-TAF15(1–320): N-terminal part (aa 1–320) of TAF15 as GST-fusion protein (protein)
chain: MSDSGSYGQSGGEQQSYSTYGNPGSQGYGQASQSYSGYGQTTDSSYGQNYSGYSSYGQSYSQSYGGYENQKQSSYSQQPYNNQGQQQNMESSGSQGGRAPSYDQPDYGQQDSYDQQSGYDQHQGSYDEQSNYDQQHDSYSQNQQSYHSQRENYSHHTQDDRRDVSRYGEDNRGYGGSQGGGRGRGGYDKDGRGPMTGSSGGDRGGFKNFGGHRDYGPRTDADSESDNSDNNTIFVQGLGEGVSTDQVGEFFKQIGIIKTNKKTGKPMINLYTDKDTGKPKGEATVSFDDPPSAKAAIDWFDGKEFHGNIIKVSFATRRPE
modifications: left off: GST, end not stated, kept
notes: N-terminal part (aa 1–320) of TAF15 as GST-fusion protein
Which results are given for B1?
Effect of TAF15 fusion proteins on SRPK1 activity (phosphorylation of GST-LBRNt(62–92)) (SRPK1 [2]): did not affect the kinase activity; Effect of TAF15 fusion proteins on SRPK1 activity (phosphorylation of GST-LBRNt(62–92)) (SRPK1 [2]; listed as GST-TAF15(1-320)): has no effect on SRPK1 activity; Binding of SRPK1 from HeLa cell extracts to immobilized GST fusion protein (SRPK1 [3]): no such interaction
